What was measured:
[1] = Description: In the initial tests as reported in PCT/IB2010/051373 tablets were administered three times daily.
Four selected outcome variables were used in this preliminary analysis: Global improvement (GI), Tinnitus Handicap Inventory (THI) and Tinnitus Impairment Questionnaire (TBF 12) questionnaires and Minimum Masking Levels (MML). The changes on the outcome variables were obtained by subtracting week 12's scores from the screening scores. The presence of a negative result means a decrease on values.
In Table 2 the changes on outcome variables are listed by Global Improvement (GI) classification, as follows: GI 1=much better; 2=better; 3=slightly better; 4=no change; 5=slightly worse; 6=worse; 7=much worse; THI: Tinnitus Handicap Inventory, TBF 12: Tinnitus Impairment Questionnaire; MML: minimal masking levels, measured in dB HL (Hearing Level).
Four different criteria were established to determine whether a subject responded or not to treatment (see Table 3).

[2] = 10 to 40 mg over a 12 week period; 120 fibromyalgia patients; cited from earlier work

SMILES: CN(C)CCC=C1c2ccccc2C=Cc2ccccc21 [Cyclobenzaprine]
- Responders n ([1]; Criteria 2: Criteria 1 + decrease on THI): 11
- Tolerability ([1]; common side effects like constipation and dry mouth may be experienced): tolerated well by most subjects
- Number of subjects Better or Much Better on GI ([1]; of 15 subjects, FIG. 1): 8 subjects
- Number of subjects Slightly Better, Better or Much Better on GI ([1]; of 15 subjects, FIG. 1): 11 subjects
- Number of subjects with changes on tinnitus pitch ([1]; out of 15 subjects): 5 subjects
- Remark in place of MML change (intermittent tinnitus) ([1]; subject 3, MML not possible to measure): change on intensity and less episodes
- Trial suspension due to side effects ([1]; subject 6): Trial suspended because of side effects
- Course of Minimum Masking Levels (MML) during the tests ([1]; subjects 4, 8, 9, 10 and 11, FIGS. 2-6): progressive reduction
- Effect on tinnitus severity and tinnitus loudness ([1]; tested subjects): positive effect
- Safety of administration ([1]; tested subjects): safe to administer
- Quality of sleep and pain score [2]: significantly improved
- Total number of tender points and muscle tightness [2]: reduction

Source: patent US20130230586A1, “Treatment of Tinnitus and Related Auditory Dysfunctions” (LINK RESEARCH & GRANTS CORPORATION, priority 2010, published 2013)
